Results on three compounds are retold here after patent US7109193B2, “Tricyclic diazepines tocolytic oxytocin receptor antagonists” (Wyeth, priority 2001, dated 2006).

What is called melting point is the temperature of the solid-liquid transition. In turn, `Cc1cc(C(=O)N2Cc3ccc(C(=O)O)n3Cc3ccccc32)ccc1-c1ccccc1C(F)(F)F` came in with a melting point of 233 to 235 °C.
For the compound `COc1cc(-c2ccccc2C)ccc1C(=O)N1Cc2ccc(C(=O)O)n2Cc2ccccc21`, the melting point was in the range of 201 to 204 °C.
For `COc1cc(-c2ccccc2F)c(Cl)cc1C(=O)N1Cc2ccc(C(=O)O)n2Cc2ccccc21`, the melting point was 207 to 208 °C.
